Test results from patent US20090326031A1, “ANTIVIRAL USE OF CATIONIC SURFACTANT” (priority 2006, published 2009).

Columns and labels:
toxicological studies = assay type: in vivo; conditions: animals and humans
Herpes virus type 1 = experiment: activity of LAE against Herpes virus type 1; assay type: cell-based, Herpes simplex virus; conditions: LAE 200 ppm
Protocol: (§1) In the following experiments the reduction factor has been calculated.
(§2) This reduction factor is calculated according to the following formula
(§3) R′ presents the reduction factor, v′ represents the volume of the sample of the test compound, a′ is the virus concentration in the added sample (^10log value), v″ is the volume of the final sample, a″ is the virus concentration after treatment (^10log value).
(§4) In the following experiments the clearance factor has been calculated. The clearance factor is calculated according to the following formula: […]
(§5) CL is the elimination factor (clearance factor), q′ is the initial concentration of virus (^10log value), q″ is the final concentration of virus (^10log value).
The virus which was investigated was the type Simplex virus of the subfamily Alphaherpesvirinae in the family Herpesviridae.
The conditions for the determination are similarly chosen according to the ones of example 1.
(§6) LAE was investigated at a concentration of 200 ppm.

metabolism in rats = assay type: in vivo; conditions: eventually excreted as carbon dioxide and urea
[1] = tested on: Penicillium chrysogenum CECT 2802; experiment: minimum inhibitory concentration; assay type: cell-based; conditions: Fungi
Description: (§7) This compound is remarkable for its inhibitory action over the proliferation of different microorganisms, such as bacteria, fungi and yeasts.

[2] = tested on: Proteus mirabilis CECT 170; experiment: minimum inhibitory concentration; assay type: cell-based; conditions: Gram − Bacteria
Description: as §7

[3] = tested on: Listeria monocytogenes ATCC 7644; experiment: minimum inhibitory concentration; assay type: cell-based; conditions: Gram + Bacteria
Description: as §7

[4] = tested on: Bordetella bronchiseptica ATCC 4617; experiment: minimum inhibitory concentration; assay type: cell-based; conditions: Gram − Bacteria
Description: as §7

[5] = tested on: Gliocadium virens ATCC 4645; experiment: minimum inhibitory concentration; assay type: cell-based; conditions: Fungi
Description: as §7

[6] = tested on: Escherichia coli ATCC 8739; experiment: minimum inhibitory concentration; assay type: cell-based; conditions: Gram − Bacteria
Description: as §7

[7] = tested on: Micrococcus luteus ATCC 9631; experiment: minimum inhibitory concentration; assay type: cell-based; conditions: Gram + Bacteria
Description: as §7

[8] = tested on: Penicillium funiculosum CECT 2914; experiment: minimum inhibitory concentration; assay type: cell-based; conditions: Fungi
Description: as §7

[9] = tested on: Saccharomyces cerevisiae ATCC 9763; experiment: minimum inhibitory concentration; assay type: cell-based; conditions: Yeast
Description: as §7

[10] = tested on: Rhodotorula rubra CECT 1158; experiment: minimum inhibitory concentration; assay type: cell-based; conditions: Yeast
Description: as §7

[11] = tested on: Serratia marcenses CECT 274; experiment: minimum inhibitory concentration; assay type: cell-based; conditions: Gram − Bacteria
Description: as §7

[12] = tested on: Leuconostoc mesenteroides CETC 912; experiment: minimum inhibitory concentration; assay type: cell-based; conditions: Gram + Bacteria
Description: as §7

[13] = tested on: Enterobacter aerogenes CECT 689; experiment: minimum inhibitory concentration; assay type: cell-based; conditions: Gram − Bacteria
Description: as §7

[14] = tested on: Candida albicans ATCC 10231; experiment: minimum inhibitory concentration; assay type: cell-based; conditions: Yeast
Description: as §7

[15] = tested on: Klebsiella pneumoniae var pneumoniae CECT 178; experiment: minimum inhibitory concentration; assay type: cell-based; conditions: Gram − Bacteria
Description: as §7

[16] = tested on: Arthrobacter oxydans ATCC 8010; experiment: minimum inhibitory concentration; assay type: cell-based; conditions: Gram + Bacteria
Description: as §7

Escherichia coli 0157H7 = experiment: minimum inhibitory concentration; assay type: cell-based; conditions: Gram − Bacteria
Description: as §7

[17] = tested on: Chaetonium globosum ATCC 6205; experiment: minimum inhibitory concentration; assay type: cell-based; conditions: Fungi
Description: as §7

[18] = tested on: Alcaligenes faecalis ATCC 8750; experiment: minimum inhibitory concentration; assay type: cell-based; conditions: Gram − Bacteria
Description: as §7

[19] = tested on: Aureobasidium pullulans ATCC 9348; experiment: minimum inhibitory concentration; assay type: cell-based; conditions: Fungi
Description: as §7

[20] = tested on: Lactobacillus delbrueckii ssp lactis CECT 372; experiment: minimum inhibitory concentration; assay type: cell-based; conditions: Gram + Bacteria
Description: as §7

[21] = tested on: Salmonella typhimurium ATCC16028; experiment: minimum inhibitory concentration; assay type: cell-based; conditions: Gram − Bacteria
Description: as §7

[22] = tested on: Citrobacter freundii ATCC 22636; experiment: minimum inhibitory concentration; assay type: cell-based; conditions: Gram − Bacteria
Description: as §7

[23] = tested on: Mycobacterium phlei ATCC 41423; experiment: minimum inhibitory concentration; assay type: cell-based; conditions: Gram + Bacteria
Description: as §7

[24] = tested on: Bacillus cereus var mycoide ATCC 11778; experiment: minimum inhibitory concentration; assay type: cell-based; conditions: Gram + Bacteria
Description: as §7

[25] = tested on: Pseudomonas aeruginosa ATCC 9027; experiment: minimum inhibitory concentration; assay type: cell-based; conditions: Gram − Bacteria
Description: as §7

[26] = tested on: Staphylococcus aureus ATCC 6538; experiment: minimum inhibitory concentration; assay type: cell-based; conditions: Gram + Bacteria
Description: as §7

[27] = tested on: Bacillus subtilis ATCC 6633; experiment: minimum inhibitory concentration; assay type: cell-based; conditions: Gram + Bacteria
Description: as §7

[28] = tested on: Aspergillus niger ATCC14604; experiment: minimum inhibitory concentration; assay type: cell-based; conditions: Fungi
Description: as §7

Vaccinia virus = assay type: cell-based; conditions: LAE 200 ppm
[29] = tested on: Clostridium perfringens ATCC 77454; assay type: cell-based; conditions: Gram + Bacteria
[30] = tested on: parainfluenza bovine type 3 strain SF-4 (ATCC VR-281); experiment: activity of LAE against bovine parainfluenzae 3 virus (virus suspension, TCID50); assay type: cell-based; conditions: LAE 200 ppm
Protocol: as §1, §2, §3, §4, §5
Eagle minimum essential medium (EMEM) was obtained from Earle (ICN Flow, Rf. 11-100-24), was supplemented with
10% of fetal bovine serum (Biowhittaker, Ref. D14-810F), […] of glutamine (Biowhittaker, Ref. 17-605E), non-essential amino acids (Biowhittaker, Ref. 13-114E), 100 units of penicillin, 100 μg of streptomycin/ml and 1 mM of sodium pyruvate. LAE (CAS 60372-77-2) Lot No. 10234 with a LAE Content of 88.7%.
The investigated strain of the parainfluenza bovine type 3 was SF-4 (ATCC VR-281).
as §6
All experiments were performed at room temperature.
8 ml of deionized water was mixed with 1 ml of the virus suspension. 1 ml of LAE solution (containing 2000 ppm of LAE) was added, leading to a final LAE concentration of 200 ppm.
After 5 and 60 minutes samples for determination were taken. The design of the experiment allowed for conclusions of the effectivity of LAE after contact times of 5 and 60 minutes.
The number of virus particles in the experiment were determined by the quantitative assay TCID50 (infectious dose of cultured tissue).

## CCCCCCCCCCCC(=O)N[C@@H](CCCN=C(N)N)C(=O)OCC.Cl [LAE, ethyl ester of the lauramide of the arginine monohydrochloride]
Toxicological studies
  toxicity: completely harmless to animals and humans
Herpes virus type 1; 10log value, before addition 7.94 ± 0.37
  Virus concentration 60 min after addition of LAE: ≦1.70
Herpes virus type 1; 60 min contact, 10log values
  Clearance factor: ≧6.24 ± 0.37
  Reduction factor: ≧6.18 ± 0.36
Herpes virus type 1; 60 minutes
  remaining virus after treatment for 60 minutes: no remaining virus organisms were detected
Metabolism in rats
  absorption and metabolism: fast absorption and metabolisation into naturally-occurring amino acids and the fatty acid lauric acid
[1]
  M.I.C.: 128 ppm
[2]
  M.I.C.: 32 ppm
[3]
  M.I.C.: 10 ppm
[4]
  M.I.C.: 128 ppm
[5]
  M.I.C.: 32 ppm
[6]
  M.I.C.: 32 ppm
[7]
  M.I.C.: 128 ppm
[8]
  M.I.C.: 16 ppm
[9]
  M.I.C.: 32 ppm
[10]
  M.I.C.: 16 ppm
[11]
  M.I.C.: 32 ppm
[12]
  M.I.C.: 32 ppm
[13]
  M.I.C.: 32 ppm
[14]
  M.I.C.: 16 ppm
[15]
  M.I.C.: 32 ppm
[16]
  M.I.C.: 64 ppm
Escherichia coli 0157H7
  M.I.C.: 20 ppm
[17]
  M.I.C.: 16 ppm
[18]
  M.I.C.: 64 ppm
[19]
  M.I.C.: 16 ppm
[20]
  M.I.C.: 16 ppm
[21]
  M.I.C.: 32 ppm
[22]
  M.I.C.: 64 ppm
[23]
  M.I.C.: 2 ppm
[24]
  M.I.C.: 32 ppm
[25]
  M.I.C.: 64 ppm
[26]
  M.I.C.: 32 ppm
[27]
  M.I.C.: 16 ppm
[28]
  M.I.C.: 32 ppm
Vaccinia virus; 10log value, before addition 5.94 ± 0.34
  Virus concentration 60 min after addition of LAE: 2.40
Vaccinia virus; 5 minutes
  living virus after treatment for 5 minutes: great reduction of the number of living microorganisms
Vaccinia virus; 60 min contact, 10log values
  Clearance factor: 3.54 ± 0.34
  Reduction factor: 3.92 ± 0.36
Vaccinia virus; 60 minutes
  living virus after treatment for 60 minutes: substantial decrease of the number of living Vaccinia virus organisms
[29]
  M.I.C.: 16 ppm
[30]; 60 min contact, 10log values
  Clearance factor: ≧6.29 ± 0.32
  Reduction factor: ≧6.46 ± 0.32
[30]; 60 minutes
  remaining virus after treatment for 60 minutes: no remaining virus organisms were detected
[30]; room temperature, 10log value, TCID50, before addition 8.09 ± 0.33
  Virus concentration 60 min after addition of LAE: ≦1.63
